# Counter-ions that a name gives are not always drawn. Like-named read-outs stand apart in the source and are kept apart here.
# Tests used:
# [1] = target: T1, estrogen receptor α (ERα) (Homo sapiens, UniProt P03372); experiment: Luciferase reporter gene assay; assay type: cell-based; conditions: for IC50: HEC-1 cells, full-length ERα, 1 nM estradiol, 24 h
# T1 sequence (P03372 1-595): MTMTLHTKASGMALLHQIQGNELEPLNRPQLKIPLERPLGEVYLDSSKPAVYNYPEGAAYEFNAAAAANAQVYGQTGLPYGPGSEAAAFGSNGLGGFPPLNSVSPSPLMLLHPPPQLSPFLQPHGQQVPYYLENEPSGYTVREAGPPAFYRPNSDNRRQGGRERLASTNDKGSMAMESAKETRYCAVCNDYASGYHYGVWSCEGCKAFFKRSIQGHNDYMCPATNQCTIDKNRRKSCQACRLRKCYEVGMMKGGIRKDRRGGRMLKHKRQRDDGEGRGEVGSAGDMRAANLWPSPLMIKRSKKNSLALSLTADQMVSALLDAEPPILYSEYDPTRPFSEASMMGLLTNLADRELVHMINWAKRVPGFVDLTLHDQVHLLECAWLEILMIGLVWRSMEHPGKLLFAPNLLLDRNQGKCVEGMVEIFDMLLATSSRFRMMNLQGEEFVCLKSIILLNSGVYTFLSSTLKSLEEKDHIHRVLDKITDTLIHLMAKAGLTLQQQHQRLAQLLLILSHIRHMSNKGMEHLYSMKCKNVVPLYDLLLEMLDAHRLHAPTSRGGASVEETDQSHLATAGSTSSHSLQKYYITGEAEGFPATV
# [2] = target: T2, Gal4-SRC-1NRD / ERαDEF-VP16 (Homo sapiens, UniProt P03372); experiment: Mammalian two hybrid; assay type: cell-based; conditions: read-out: IC50, CBI inhibition in the M2H assay; HEC-1 cells, 1 nM estradiol, 24 h
# T2 sequence (P03372 264-595 limits assumed): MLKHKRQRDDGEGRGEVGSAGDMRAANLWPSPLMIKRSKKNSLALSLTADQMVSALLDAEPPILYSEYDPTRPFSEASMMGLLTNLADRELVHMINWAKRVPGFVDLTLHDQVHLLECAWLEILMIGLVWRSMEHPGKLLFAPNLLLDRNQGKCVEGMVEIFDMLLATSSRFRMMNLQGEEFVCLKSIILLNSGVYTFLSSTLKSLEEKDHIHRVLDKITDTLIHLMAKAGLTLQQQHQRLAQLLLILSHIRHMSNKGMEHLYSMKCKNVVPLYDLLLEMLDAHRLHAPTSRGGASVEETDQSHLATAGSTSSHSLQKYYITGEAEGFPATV
# [3] = target: T3, recombinant estrogen receptor ligand binding domain / fluorescein-labeled SRC peptide (Homo sapiens, UniProt P03372); experiment: Fluorescence polarization assay of ER/coactivator interaction; conditions: 1 μM estradiol, Figure 1
# T3 sequence (P03372 311-547 limits assumed): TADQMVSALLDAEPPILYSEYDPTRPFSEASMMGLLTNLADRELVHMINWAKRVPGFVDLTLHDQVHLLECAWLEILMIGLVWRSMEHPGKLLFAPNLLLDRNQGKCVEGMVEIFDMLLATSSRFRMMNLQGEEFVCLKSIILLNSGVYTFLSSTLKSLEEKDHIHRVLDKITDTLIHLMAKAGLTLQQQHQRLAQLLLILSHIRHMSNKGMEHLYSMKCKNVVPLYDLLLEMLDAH
# ER = conditions: read-out: IC50, CBI activity against ER; mammalian two-hybrid (M2H) assay; cited from earlier work
# [4] = system: ER transactivation in human breast cancer MCF-7 cells; conditions: cited from earlier work
# ERα = target: T4, ERα (Homo sapiens, UniProt P03372); experiment: Covalent attachment test, ESI mass spectrometry of ER after incubation; conditions: 30 min at 4 °C in phosphate-buffered saline, dialysis overnight, low-res ESI
# T4 sequence (P03372 1-595): T1 sequence (P03372 1-595)
# [5] = read-out: IC50, CBI inhibition of reporter gene activity
# [6] = IC50, CBI inhibition of reporter gene activity
Molecule,"IC50 [1, 6]",other results
3-Chloro-3-naphthalen-1-yl-propenal aminoguanylhydrazone HCl [compound 30],,"IC50 [1, 5]: ≥ 50 µM; IC50 [2]: ≥ 50 µM"
"N=C(N)N/N=C/C1=C(Br)c2ccccc2CC1 [compound 24, 1-Bromo-3,4-dihydronaphthalene-2-carboxaldehyde aminoguanylhydrazone HCl]",7.8 ± 0.1 µM,
hydroxytamoxifen [reference compound],,"increase in IC50 with a 100-fold higher estradiol concentration ([1]; reporter gene assay, 1 nM vs 100 nM estradiol, Figure 4b): 100 fold"
"N=C(N)N/N=C/C1=C(Cl)c2ccccc2CC1 [compound 1, 1-Chloro-3,4-dihydronaphthalene-2-carboxaldehyde aminoguanylhydrazone HCl]",,IC50 (ER): 5.5 µM; inhibition of ER/coactivator interaction [3]: Dose-dependent inhibition; ER transactivation [4]: inhibited ER transactivation; change in molecular weight of ER (covalent attachment) (ERα): no change in molecular weight was observed
"1-(1-Chloro-3,4-dihydro-naphthalen-2-yl)-ethanone aminoguanylhydrazone HCl [compound 33]",,"IC50 [1, 5]: ≥ 50 µM"
"N=C(N)N/N=C/C1=C(C(F)(F)F)c2ccccc2CC1 [compound 27, 1-(1,1,1,-Trifluoromethyl)-3,4-dihydronaphthalene-2-carboxaldehyde aminoguanylhydrazone HCl]",12 µM,
"N=C(N)N/N=C/c1ccc2ccccc2c1 [compound 32, 2-(2-Naphthalenylmethylene)hydrazinecarboximidamide HCl]",7.5 ± 0.5 µM,
"N=C(N)N/N=C/c1cccc2ccccc12 [compound 31, 2-(1-Naphthalenylmethylene) hydrazinecarboximidamide HCl]",7.5 µM,

# Further lines, with some results ahead:
"IC50 [1, 6]",Molecule,other results
3.3 ± 0.8 µM,"N=C(N)N/N=C/C1=C(Cl)c2ccccc2CCC1 [compound 23, 9-Chloro-6,7-dihydro-5-benzocycloheptene-8-carboxaldehyde aminoguanylhydrazone HCl]",inhibition of ER/coactivator interaction [3]: Dose-dependent inhibition
1.5 µM,"CC1CC(/C=N/NC(=N)N)=C(Cl)c2ccccc21 (centres unmarked) [compound 21, 1-Chloro-3-dihydro-4-methylnaphthalene-2-carboxaldehyde aminoguanylhydrazone HCl]",
1.2 ± 0.1 µM,"Cc1cc(C)c2c(c1)C(Cl)=C(/C=N/NC(=N)N)CC2 [compound 20, 1-Chloro-5,7-dimethyl-3,4-dihydronaphthalene-2-carboxaldehyde aminoguanylhydrazone HCl]",
3.1 ± 0.8 µM,"COC1=C(/C=N/NC(=N)N)CCc2ccccc21 [compound 25, 1-Methoxy-3,4-dihydronaphthalene-2-carboxaldehyde aminoguanylhydrazone HCl]",
3.5 ± 1.1 µM,"N=C(N)N/N=C/C1=C(Oc2ccccc2)c2ccccc2CC1 [compound 26, 1-Phenoxy-3,4-dihydronaphthalene-2-carboxaldehyde aminoguanylhydrazone HCl]",
1.4 ± 0.4 µM,"CC(/C=N/NC(=N)N)=C(/Cl)c1ccccc1 [compound 29, β-Chloro-α-methylcinnamaldehyde aminoguanylhydrazone HCl]",inhibition of ER/coactivator interaction [3]: Dose-dependent inhibition

# Source: article PMC2613833 (Bioorganic & medicinal chemistry, 2008)
